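Compound exposure: 48 hours, 5 concentrations, 96-well plates. TGI is the concentration that stops growth completely.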
What was measured:
Assay in all cases: DTP human tumour cell line panel, 48 h
SK-OV-3 ovarian = system: SK-OV-3 ovarian
MOLT-4 leukemia = system: MOLT-4 leukemia
LXFL 529 NSCLC = system: LXFL 529 NSCLC
TK-10 renal = system: TK-10 renal
RXF 393 renal = system: RXF 393 renal
SF-539 CNS = system: SF-539 CNS
SK-MEL-5 melanoma = system: SK-MEL-5 melanoma
HCT-116 colon = system: HCT-116 colon
SNB-78 CNS = system: SNB-78 CNS
RPMI-8226 leukemia = system: RPMI-8226 leukemia
HL-60(TB) leukemia = system: HL-60(TB) leukemia
SF-268 CNS = system: SF-268 CNS
OVCAR-4 ovarian = system: OVCAR-4 ovarian
SW-620 colon = system: SW-620 colon
NCI-H226 lung = system: NCI-H226 lung
OVCAR-3 ovarian = system: OVCAR-3 ovarian
LOX IMVI melanoma = system: LOX IMVI melanoma
HCT-15 colon = system: HCT-15 colon
DLD-1 colon = system: DLD-1 colon
COLO 205 colon = system: COLO 205 colon

Row | Structure (SMILES) | TGI (SK-OV-3 ovarian) [µM] | TGI (MOLT-4 leukemia) [µM] | TGI (LXFL 529 NSCLC) [nM] | TGI (TK-10 renal) [µM] | TGI (RXF 393 renal) [nM] | TGI (SF-539 CNS) [nM] | TGI (SK-MEL-5 melanoma) [nM] | TGI (HCT-116 colon) [nM] | TGI (SNB-78 CNS) [nM] | TGI (RPMI-8226 leukemia) [µM] | TGI (HL-60(TB) leukemia) [µM] | TGI (SF-268 CNS) [nM] | TGI (OVCAR-4 ovarian) [µM] | TGI (SW-620 colon) [µM] | TGI (NCI-H226 lung) [µM] | TGI (OVCAR-3 ovarian) [µM] | TGI (LOX IMVI melanoma) [µM] | TGI (HCT-15 colon) [µM] | TGI (DLD-1 colon) [µM] | TGI (COLO 205 colon) [µM]
1 | CCN1/C(=C/C(C)=C/c2sc3ccccc3[n+]2CC)Sc2ccccc21 | 0.375 | 1.15 | 1200 | 1.37 | 1590 | 1110 | 1110 | 1420 | 2510 | 4.48 | 4.78 | 1760 | 1.62 |  |  |  |  |  |  | 
2 | CNC(=O)CN1CC(=O)N(C)C(=O)C1 | > 100 | > 100 | > 100000 | > 100 | > 100000 |  | > 100000 |  | > 100000 | > 100 | > 100 |  | > 100 | > 100 | > 100 | > 100 | > 100 | > 100 | > 100 | > 100
3 | COc1ccc2c(c1)c1cc(OC)ccc1n2CCCCOc1ccc(-c2c3ccccc3c(-c3ccc(OCCCCn4c5ccc(OC)cc5c5cc(OC)ccc54)cc3)c3ccccc23)cc1 | > 100 | > 100 |  | > 100 |  | > 100000 |  | > 100000 |  |  |  | > 100000 | > 100 | > 100 | > 100 | > 100 | > 100 | > 100 | > 100 | > 100

— PubChem BioAssay (NCI)
